Test [1] relates to human non-small cell lung cancer cell line HCC827. Put plainly: In vitro inhibitory action on human tumor cells, HCC827 (SRB). Type of test: cell-based. The following applies: SRB assay, usually 3 days. As for the experimental part:
Human epidermoid carcinoma cell line A431, human non-small cell lung cancer cell line HCC827, head and neck cancer cell lines Fadu and human pancreatic cancer cell line AsPC-1 were purchased from Cell Bank, Chinese Academy of Sciences.
3.2 Cell culture method: cells were cultured in the complete medium at 37° C. under 5% CO2 and saturated humidity until logarithmic growth phase, i.e., adherent cells substantially approach complete confluence, and then collected for subsequent assay. For the adherent cells, they were firstly digested with trypsin/EDTA to detach.
3.3 A certain number of cells were seeded into 96-well cell culture plates (hereinafter referred to as 96-well plates). […] Finally, total cellular protein in the wells was determined using SRB assay, or cell viability was determined with MTT assay.
3.3.1 The cell seeding concentration was determined by cell growth curve assay which completely simulates compound inhibition assay process. […]
3.4 Dilution and addition of compounds: the concentration of DMSO that can be tolerant by the cells was determined by DMSO tolerance assay, and thereby selecting the dilution and addition methods of compounds. The effects of different concentrations of DMSO on cell growth were determined by DMSO tolerance assay. […] Two methods are finally determined as follows. […]

The target of test [2] is T1, EGFR (Homo sapiens, UniProt P00533).
T1 construct: purchased Invitrogen Company PV3872
T1 sequence (P00533 25-1210): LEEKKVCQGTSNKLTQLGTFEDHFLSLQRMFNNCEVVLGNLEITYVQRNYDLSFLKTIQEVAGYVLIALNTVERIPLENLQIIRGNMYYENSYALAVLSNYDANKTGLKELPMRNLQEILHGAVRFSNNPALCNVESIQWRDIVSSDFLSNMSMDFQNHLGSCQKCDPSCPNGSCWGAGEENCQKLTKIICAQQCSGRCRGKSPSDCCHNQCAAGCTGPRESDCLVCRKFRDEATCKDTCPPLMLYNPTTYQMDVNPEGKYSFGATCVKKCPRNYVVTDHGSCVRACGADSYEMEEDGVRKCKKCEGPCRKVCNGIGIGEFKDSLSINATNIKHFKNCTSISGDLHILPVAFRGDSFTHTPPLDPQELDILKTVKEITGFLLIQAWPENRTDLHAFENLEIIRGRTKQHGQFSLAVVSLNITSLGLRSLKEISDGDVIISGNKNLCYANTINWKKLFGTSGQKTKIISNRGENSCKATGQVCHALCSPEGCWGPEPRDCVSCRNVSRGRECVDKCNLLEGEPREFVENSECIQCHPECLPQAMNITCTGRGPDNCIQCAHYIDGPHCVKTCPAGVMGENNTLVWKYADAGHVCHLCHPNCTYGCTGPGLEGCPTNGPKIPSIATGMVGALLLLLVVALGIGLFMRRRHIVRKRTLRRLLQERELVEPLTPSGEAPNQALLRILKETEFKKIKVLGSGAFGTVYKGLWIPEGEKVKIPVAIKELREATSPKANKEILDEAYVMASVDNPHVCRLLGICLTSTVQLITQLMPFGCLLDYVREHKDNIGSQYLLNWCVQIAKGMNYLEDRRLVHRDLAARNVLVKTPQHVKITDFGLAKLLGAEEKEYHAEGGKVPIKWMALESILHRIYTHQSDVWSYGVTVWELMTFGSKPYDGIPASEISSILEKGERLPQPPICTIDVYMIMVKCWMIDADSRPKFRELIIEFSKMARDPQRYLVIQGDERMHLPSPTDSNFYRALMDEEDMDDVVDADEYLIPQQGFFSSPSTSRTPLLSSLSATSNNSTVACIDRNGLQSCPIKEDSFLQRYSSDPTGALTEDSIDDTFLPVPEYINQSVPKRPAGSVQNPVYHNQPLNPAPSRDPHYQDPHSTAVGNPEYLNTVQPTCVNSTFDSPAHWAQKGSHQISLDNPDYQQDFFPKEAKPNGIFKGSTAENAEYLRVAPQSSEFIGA
Put plainly: Inhibitory effect on tyrosine kinase activity of EGFR. The following applies: EGFR 40 ng/ml, ATP 10 μM, 30 min. Type of test: biochemical. As to the method: EGFR: Invitrogen Company, Catalogue No. PV3872
pGT (poly(glutamic acid-tyrosine)): Sigma-Aldrich Company, Catalogue No. P0275
The assay method is briefly described as follows.
3.1.1 At 4° C., 96-well microtiter plate was coated with 0.2 mg/mL pGT (as the substrate of enzyme) dissolved in PBS (phosphate buffer) overnight. Unbound pGT was washed away with a washing solution (0.05% Tween −20 in PBS), and the plate was dried in the air at room temperature for 2 h.
3.1.2 The enzyme reaction was performed in 50 μl reaction system containing 50 mM HEPEs (N-(2-hydroxyethyl)piperazine-N′-2-ethanesulfonic acid), pH 7.5, 0.01% BRIJ-35 (polyoxyethylene lauryl ether), 10 mM MgCl2, 1 mM EGTA (ethylene glycol bis(2-aminoethyl ether)tetraacetic acid), with certain concentrations of ATP (adenosine triphosphate) and kinase, and proceeded for 30 min at room temperature. The phosphate group at the terminal of ATP can be transferred to tyrosine residues of pGT by kinase catalysis so as to phosphorylate the tyrosine residues.
3.1.3 A final concentration of 1% SDS (sodium dodecyl sulfate) was added to terminate the reaction. The phosphorylated tyrosine residues were identified using pY-20. HRP at the end of the antibody enabled TMB to take on color. Then equal amount of 2 N H2SO4 was added to terminate the reaction. OD value, which is positively correlated with the phosphorylation degree of tyrosine residues of pGT, was measured at 450 nm
3.2 The concentrations of the kinase and substrate ATP were determined with reference to the literature “Optimization of a LanthaScreen Kinase assay for EGFR (ErbB1)”(https://tools.lifetechnologies.com/content/sfs/manuals/EGFR_LanthaScreen_actity_Europium.pdf), published by Invitrogen Corporation. The selection criteria for the final concentrations are that the concentration of kinase enabling the yield of the product within the linear range of the detection system and the concentration of ATP approching Km (Michaelis constant) value.
3.3.1 An appropriate amount of a compound was dissolved in DMSO (dimethylsulfoxide) to prepare 2 mM stock solution. Then the stock solution was diluted with DMSO to obtain a working solution with a 50-fold concentration of the highest test concentration, and subjected to a 4-fold gradient dilution to obtain seven concentrations in total.
5 μl 10-fold concentration of ATP dissolved in H2O (the concentration of ATP in EGFR assay is 100 μM, and in Her2 assay is 400 μM) was added to initiate the enzyme reaction followed by reaction at room temperature for 30 min
The mean value of inhibition rate and SD (standard deviation) were determined by duplicate wells. A curve with the concentration of the compound as abscissa and being in logarithmic distribution and the mean value of inhibition rate as ordinate was plotted and fitted using four-parameter logistic function.

The text below walks through data of patent publication US9840494B2, “Quinazoline derivative” (Tianjin Hemay Oncology Pharmaceutical Co., Ltd., priority 2013, dated 2017).

Turning to `COCCOc1cc2ncnc(Nc3ccc(F)c(Cl)c3)c2cc1NC(=O)C=C1CCN(CCOC)CC1.CS(=O)(=O)O` [Compound 3, N-[4-(3-chloro-4-fluorophenylamino)-7-(2-methoxyethoxy)quinazolin-6-yl]-2-[1-(2-methoxyethyl)piperidin-4-ylidene]acetamide dimethylsulfonate], the IC50 in test [1] came to 10 nM; in test [2] it was 0.4 nM.
`COCCOc1cc2ncnc(Nc3ccc(F)c(Cl)c3)c2cc1NC(=O)C=C1CCN(CCOC)CC1.Cl.Cl` [Compound 2, N-[4-(3-chloro-4-fluorophenylamino)-7-(2-methoxyethoxy)quinazolin-6yl]-2-[1-(2-methoxyethyl)piperidin-4-ylidene]acetamide dihydrochloride] yielded an IC50 in test [2] of 0.5 nM.
For the compound `COCCOc1cc2ncnc(Nc3ccc(F)c(Cl)c3)c2cc1NC(=O)C=C1CCN(CCOC)CC1` [Compound 1, N-[4-(3-chloro-4-fluorophenylamino)-7-(2-methoxyethoxy)quinazolin-6-yl]-2-[1-(2-methoxyethyl)piperidin-4-ylidene]acetamide], the IC50 in test [1] (Homo sapiens, HCC827, 72 h) was 8 nM; in test [2] it was 0.4 nM.
